Reference: patent US20230241102A1, “FORMULATIONS OF CALCIUM AND PHOSPHATE FOR ORAL INFLAMMATION” (Bausch Health Companies Inc., priority 2014, published 2023)

What was measured:
[1] = Visual solubility test: components mixed in 30 ml tap water, assessed visually for turbidity, particles in suspension or precipitate; conditions: Table 2, calcium sources at consistent calcium content, room temperature, same observation for both trials
Description: Table 1 provides a description of the visual solubility tests performed using various components (including a commercial sample), with the quantities of each product weighed, and visual observations after the components were mixed in water.
(§1) To evaluate dissolution, the components were weighed and put in centrifuge tubes containing 30 ml of tap water at room temperature. The tubes were gently stirred by hand (up and down movements) for 30 seconds to 1 minute. The dispersions were then assessed visually for turbidity and presence of particles in suspension or precipitate. pH was also assessed using pH meter Mettler Toledo Seven Multi and following USP<791>method.
(§2) Visual solubility tests were done in duplicate using 3 different calcium sources. The quantity of material was adjusted in order to maintain a consistent calcium content from each different salt.
The following trials were performed in order to assess visual solubility and pH levels of various formulations. […] All lots were prepared by dry blending by hand of ingredients using spatula.

[2] = pH of the resulting liquid (pH meter Mettler Toledo Seven Multi, USP<791>); conditions: for pH trial 1 / pH trial 2: Table 2, 30 ml tap water, room temperature
Description: as §1, §2
The following trials were performed in order to assess visual solubility and pH levels of various formulations.

pH ([2]; Tables 3-5, calcium salt with dibasic and monobasic sodium phosphate in 30 ml water) | Molecule | Observations [1] | pH trial 1 [2] | pH trial 2 [2]
– | CC(O)C(=O)[O-].O=C([O-])[C@H](O)[C@@H](O)[C@H](O)[C@H](O)CO.[Ca+2] [Calcium lactate gluconate] | sufficiently soluble | 7.73 | 7.74
– | O.O.[Ca+2].[Cl-].[Cl-] [Calcium Chloride dihydrate] | – | 7.65 | 7.67
higher pH | Calcium glycerophosphate | – | 8.08 | 8.07
